Assay results: patent publication US20240000872A1, “NOVEL BACTERIOPHAGE THAT LYSES ACINETOBACTER GENUS BACTERIA HAVING RESISTANCE TO ANTIBIOTICS” (priority 2020, published 2024)

Tested on: Acinetobacter baumannii strains
Assay: Antibiotic susceptibility test (CLSI disk diffusion test method, read per CLSI 2016)
Assay type: cell-based
Description: Strain identification was performed using a kit such as AT 32 GN system (bioMérieux, Marcy l'Etoile, France). […] In Table 2 below, S, I, and R are the results obtained by evaluating susceptibility to the antibacterial agents, in which ‘S’ means susceptible, ‘I’ means intermediate, and ‘R’ means resistant.
Strain identification was performed using a kit such as ATB 32 GN system (bioMédrieux, Marcy l'Etoile, France). […] In Table 6 below, S, I, and R are the results obtained by evaluating susceptibility to the antibacterial agents, in which ‘S’ means susceptible, ‘I’ means intermediate, and ‘R’ means resistant.
Strain identification was performed using a kit such as ATB 32 GN system (bioMérieux, Marcy l'Etoile, France). […] In Table 10 below, S, I, and R are the results obtained by evaluating susceptibility to the antibacterial agents, in which ‘S’ means susceptible, T means intermediate, and ‘R’ means resistant.

## CO/N=C(\C(=O)N[C@@H]1C(=O)N2C(C(=O)O)=C(COC(C)=O)CS[C@H]12)c1csc(N)n1 [Cefotaxime, cefotaxime]
Host strain YMC14/01/C29
  antibiotic susceptibility class: R
Host strain YMC14/01/IP122
  antibiotic susceptibility class: R
Host strain YMC14/01/L8
  antibiotic susceptibility class: R
Host strain YMC14/01/P31
  antibiotic susceptibility class: R
Host strain YMC14/01/P117
  antibiotic susceptibility class: R
Host strain YMC14/01/P224
  antibiotic susceptibility class: R
Host strain YMC14/01/P727
  antibiotic susceptibility class: R
Host strain YMC14/01/P728
  antibiotic susceptibility class: R
Host strain YMC14/01/R130
  antibiotic susceptibility class: R
Host strain YMC14/01/R160
  antibiotic susceptibility class: R
Host strain YMC14/01/R198
  antibiotic susceptibility class: R
Host strain YMC14/01/R257
  antibiotic susceptibility class: R
Host strain YMC14/01/R270
  antibiotic susceptibility class: R
Host strain YMC14/01/R324
  antibiotic susceptibility class: R
Host strain YMC14/01/R443
  antibiotic susceptibility class: R
Host strain YMC14/01/R451
  antibiotic susceptibility class: R
Host strain YMC14/01/R560
  antibiotic susceptibility class: R
Host strain YMC14/01/R617
  antibiotic susceptibility class: R
Host strain YMC14/01/R671
  antibiotic susceptibility class: R
Host strain YMC14/01/R732
  antibiotic susceptibility class: R
Host strain YMC14/01/R767
  antibiotic susceptibility class: R
Host strain YMC14/01/R904
  antibiotic susceptibility class: R
Host strain YMC14/01/R905
  antibiotic susceptibility class: R
Host strain YMC14/01/R921
  antibiotic susceptibility class: R
Host strain YMC14/01/R941
  antibiotic susceptibility class: R
Host strain YMC14/01/R958
  antibiotic susceptibility class: R
Host strain YMC14/01/R1006
  antibiotic susceptibility class: R
Host strain YMC14/01/R1199
  antibiotic susceptibility class: R
Host strain YMC14/01/R1659
  antibiotic susceptibility class: R
Host strain YMC14/01/R1722
  antibiotic susceptibility class: R
Host strain YMC14/01/R1752
  antibiotic susceptibility class: R
Host strain YMC14/01/R2429
  antibiotic susceptibility class: R
Host strain YMC14/01/R2572
  antibiotic susceptibility class: R
Host strain YMC14/01/R2855
  antibiotic susceptibility class: R
Host strain YMC14/01/R2945
  antibiotic susceptibility class: R
Host strain YMC14/01/R3007
  antibiotic susceptibility class: R
Host strain YMC14/01/R3129
  antibiotic susceptibility class: R
Host strain YMC14/01/R3317
  antibiotic susceptibility class: R
Host strain YMC14/01/R3474
  antibiotic susceptibility class: R
Host strain YMC14/01/R3574
  antibiotic susceptibility class: R
Host strain YMC14/01/U313
  antibiotic susceptibility class: R
Host strain YMC14/01/U318
  antibiotic susceptibility class: R
Host strain YMC14/02/L18
  antibiotic susceptibility class: R
Host strain YMC14/02/P47
  antibiotic susceptibility class: R
Host strain YMC14/02/R1860
  antibiotic susceptibility class: R
Host strain YMC14/02/R2417
  antibiotic susceptibility class: R
Host strain YMC14/02/R2599
  antibiotic susceptibility class: R
Host strain YMC14/02/R2668
  antibiotic susceptibility class: R
Host strain YMC14/02/R2758
  antibiotic susceptibility class: R
Host strain YMC14/02/R2781
  antibiotic susceptibility class: R
Host strain YMC14/02/R3106
  antibiotic susceptibility class: R
Host strain YMC14/02/R3419
  antibiotic susceptibility class: R
Host strain YMC14/02/U1607
  antibiotic susceptibility class: R
Host strain YMC14/03/L9
  antibiotic susceptibility class: R
Host strain YMC14/03/P471
  antibiotic susceptibility class: R
Host strain YMC14/03/R122
  antibiotic susceptibility class: R
Host strain YMC14/03/R217
  antibiotic susceptibility class: R
Host strain YMC14/03/R380
  antibiotic susceptibility class: R
Host strain YMC14/03/R618
  antibiotic susceptibility class: R
Host strain YMC14/03/R2144
  antibiotic susceptibility class: R
Host strain YMC14/03/U4616
  antibiotic susceptibility class: R
Host strain YMC14/04/R1078
  antibiotic susceptibility class: R
Host strain YMC14/04/R1080
  antibiotic susceptibility class: R
Host strain YMC14/06/R2359
  antibiotic susceptibility S/I/R: R
  susceptibility category (S/I/R): R
Host strain YMC14/08/R1169
  antibiotic susceptibility S/I/R: R
  susceptibility category (S/I/R): R
Host strain YMC14/08/T90
  antibiotic susceptibility S/I/R: R
  susceptibility category (S/I/R): R
Host strain YMC15/02/R436
  antibiotic susceptibility S/I/R: R
  susceptibility category (S/I/R): R
Host strain YMC15/02/T28
  antibiotic susceptibility S/I/R: R
  susceptibility category (S/I/R): R
Host strain YMC15/03/R1604
  antibiotic susceptibility S/I/R: R
  susceptibility category (S/I/R): R
Host strain YMC15/09/R1869
  antibiotic susceptibility S/I/R: R
  susceptibility category (S/I/R): R
Host strain YMC16/01/P11
  antibiotic susceptibility S/I/R: R
  susceptibility category (S/I/R): R
Host strain YMC16/01/R123
  antibiotic susceptibility S/I/R: R
  susceptibility category (S/I/R): R
Host strain YMC16/01/R198
  antibiotic susceptibility S/I/R: R
  susceptibility category (S/I/R): R
Host strain YMC16/01/R353
  antibiotic susceptibility S/I/R: R
  susceptibility category (S/I/R): R
Host strain YMC16/01/R380
  antibiotic susceptibility S/I/R: R
  susceptibility category (S/I/R): R
Host strain YMC16/01/R397
  antibiotic susceptibility S/I/R: R
  susceptibility category (S/I/R): R
Host strain YMC16/01/R405
  antibiotic susceptibility S/I/R: R
  susceptibility category (S/I/R): R
Host strain YMC16/03/R4461
  susceptibility category (S/I/R): I
Host strain YMC16/05/R2210
  antibiotic susceptibility S/I/R: R
  susceptibility category (S/I/R): R
Host strain YMC16/07/R2512
  antibiotic susceptibility S/I/R: R
  susceptibility category (S/I/R): R
Host strain YMC16/09/R2471
  antibiotic susceptibility S/I/R: R
  susceptibility category (S/I/R): R
Host strain YMC16/10/R2537
  antibiotic susceptibility S/I/R: R
  susceptibility category (S/I/R): R
Host strain YMC16/12/B11422
  antibiotic susceptibility S/I/R: R
  susceptibility category (S/I/R): R
Host strain YMC16/12/B11449
  antibiotic susceptibility S/I/R: R
  susceptibility category (S/I/R): R
Host strain YMC16/12/B13325
  antibiotic susceptibility S/I/R: R
  susceptibility category (S/I/R): R
Host strain YMC16/12/P503
  antibiotic susceptibility S/I/R: R
  susceptibility category (S/I/R): R
Host strain YMC16/12/R4637
  antibiotic susceptibility S/I/R: R
  susceptibility category (S/I/R): R
Host strain YMC17/01/B8053
  antibiotic susceptibility S/I/R: R
  susceptibility category (S/I/R): R
Host strain YMC17/01/B10087
  antibiotic susceptibility S/I/R: R
  susceptibility category (S/I/R): R
Host strain YMC17/01/B12075
  antibiotic susceptibility S/I/R: R
  susceptibility category (S/I/R): R
Host strain YMC17/01/B13454
  antibiotic susceptibility S/I/R: R
  susceptibility category (S/I/R): R
Host strain YMC17/01/P518
  antibiotic susceptibility S/I/R: R
  susceptibility category (S/I/R): R
Host strain YMC17/01/R2812
  antibiotic susceptibility S/I/R: R
  susceptibility category (S/I/R): R
Host strain YMC17/02/B14
  antibiotic susceptibility S/I/R: R
  susceptibility category (S/I/R): R
Host strain YMC17/02/B87
  antibiotic susceptibility S/I/R: R
  susceptibility category (S/I/R): R
Host strain YMC17/02/B721
  antibiotic susceptibility S/I/R: R
  susceptibility category (S/I/R): R
Host strain YMC17/02/B4039
  antibiotic susceptibility S/I/R: R
  susceptibility category (S/I/R): R
Host strain YMC17/02/B4520
  antibiotic susceptibility S/I/R: R
  susceptibility category (S/I/R): R
Host strain YMC17/02/B4864
  antibiotic susceptibility S/I/R: S
  susceptibility category (S/I/R): S
Host strain YMC17/02/B8414
  antibiotic susceptibility S/I/R: R
  susceptibility category (S/I/R): R
Host strain YMC17/02/P523
  antibiotic susceptibility S/I/R: R
  susceptibility category (S/I/R): R
Host strain YMC17/02/R541
  antibiotic susceptibility S/I/R: R
  susceptibility category (S/I/R): R
Host strain YMC17/02/R2392
  antibiotic susceptibility S/I/R: R
  susceptibility category (S/I/R): R
Host strain YMC17/03/B4730
  antibiotic susceptibility S/I/R: R
  susceptibility category (S/I/R): R
Host strain YMC17/03/B5000
  antibiotic susceptibility S/I/R: R
  susceptibility category (S/I/R): R
Host strain YMC17/03/P971
  antibiotic susceptibility S/I/R: R
  susceptibility category (S/I/R): R
Host strain YMC17/03/R348
  antibiotic susceptibility S/I/R: R
  susceptibility category (S/I/R): R
Host strain YMC17/03/R585
  antibiotic susceptibility S/I/R: R
  susceptibility category (S/I/R): R
Host strain YMC17/03/R1888
  antibiotic susceptibility S/I/R: R
  susceptibility category (S/I/R): R
Host strain YMC17/03/R3279
  antibiotic susceptibility S/I/R: R
  susceptibility category (S/I/R): R
Host strain YMC17/03/R4077
  antibiotic susceptibility S/I/R: R
  susceptibility category (S/I/R): R
Host strain YMC17/03/R4607
  antibiotic susceptibility S/I/R: R
  susceptibility category (S/I/R): R
Host strain YMC17/04/R488
  antibiotic susceptibility S/I/R: R
  susceptibility category (S/I/R): R
Host strain YMC17/04/R640
  antibiotic susceptibility S/I/R: R
  susceptibility category (S/I/R): R
Host strain YMC/17/05/R1095
  antibiotic susceptibility S/I/R: R
  susceptibility category (S/I/R): R
